Assays:
Type in all cases: in vivo
[1] = test system: Surinam grass (Brachiaria decumbens); assay: Test B postemergence; conditions: 13 to 15 days
Procedure, shortened: (§1)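 Visual injury scores, 0 = no effect to 100 = complete control, assigned against controls after 13 to 15 days in the greenhouse. Compounds formulated in non-phytotoxic solvent plus surfactant and applied to soil after planting (pre) or onto foliage of 1- to 4-leaf plants (post).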

[2] = test system: barnyardgrass (Echinochloa crus-galli); assay: Test B postemergence; conditions: 13 to 15 days
Procedure, shortened: as §1

[3] = test system: blackgrass (Alopecurus myosuroides); assay: Test B postemergence; conditions: 13 to 15 days
Procedure, shortened: as §1

corn (Zea mays) [4] = assay: Test B postemergence; conditions: 13 to 15 days
Procedure, shortened: as §1

[5] = test system: giant foxtail (Setaria faberii); assay: Test B postemergence; conditions: 13 to 15 days
Procedure, shortened: as §1

[6] = test system: morning glory (Ipomoea hederacea); assay: Test B postemergence; conditions: 13 to 15 days
Procedure, shortened: as §1

[7] = test system: pigweed (Amaranthus retroflexus); assay: Test B postemergence; conditions: 13 to 15 days
Procedure, shortened: as §1

[8] = test system: velvetleaf (Abutilon theophrasti); assay: Test B postemergence; conditions: 13 to 15 days
Procedure, shortened: as §1

[9] = test system: wheat (Triticum aestivum); assay: Test B postemergence; conditions: 13 to 15 days
Procedure, shortened: as §1

[10] = test system: Surinam grass (Brachiaria decumbens); assay: Test B preemergence; conditions: scale 0 to 100, 0 no effect, 100 complete control
Procedure, shortened: as §1

[11] = test system: barnyardgrass (Echinochloa crus-galli); assay: Test B preemergence; conditions: scale 0 to 100, 0 no effect, 100 complete control
Procedure, shortened: as §1

[12] = test system: cocklebur (Xanthium strumarium); assay: Test B preemergence; conditions: Preemergence, Rate 500 g/ha; scale 0 to 100, 0 no effect, 100 complete control
Procedure, shortened: as §1

corn (Zea mays) [13] = assay: Test B preemergence; conditions: scale 0 to 100, 0 no effect, 100 complete control
Procedure, shortened: as §1

[14] = test system: crabgrass (Digitaria sanguinalis); assay: Test B preemergence; conditions: scale 0 to 100, 0 no effect, 100 complete control
Procedure, shortened: as §1

[15] = test system: giant foxtail (Setaria faberii); assay: Test B preemergence; conditions: scale 0 to 100, 0 no effect, 100 complete control
Procedure, shortened: as §1

[16] = test system: lambsquarters (Chenopodium album); assay: Test B preemergence; conditions: scale 0 to 100, 0 no effect, 100 complete control
Procedure, shortened: as §1

[17] = test system: morning glory (Ipomoea hederacea); assay: Test B preemergence; conditions: Preemergence, Rate 500 g/ha; scale 0 to 100, 0 no effect, 100 complete control
Procedure, shortened: as §1

[18] = test system: pigweed (Amaranthus retroflexus); assay: Test B preemergence; conditions: Preemergence, Rate 500 g/ha; scale 0 to 100, 0 no effect, 100 complete control
Procedure, shortened: as §1

rice (Oryza saliva) [19] = assay: Test B preemergence; conditions: Preemergence, Rate 500 g/ha; scale 0 to 100, 0 no effect, 100 complete control
Procedure, shortened: as §1

[20] = test system: velvetleaf (Abutilon theophrasti); assay: Test B preemergence; conditions: Preemergence, Rate 500 g/ha; scale 0 to 100, 0 no effect, 100 complete control
Procedure, shortened: as §1

[21] = test system: barnyardgrass (Echinochloa crus-galli); assay: Test C flooded paddy test; conditions: for Barnyardgrass plant response rating: Flooded Paddy, scale 0 to 100, 0 no effect, 100 complete control; for Plant response rating, Barnyardgrass: flooded paddy test, scale 0 to 100 (0 no effect, 100 complete control)
Procedure, shortened: (§2)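 Response on a 0-to-100 scale (no effect to complete control) was assessed by eye versus controls. Plants had reached 2 leaves when treated in flooded paddy conditions. The assessment took place after 12–14 days of greenhouse growth.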

[22] = test system: duck salad (Heteranthera limosa); assay: Test C flooded paddy test; conditions: for Ducksalad plant response rating: Flooded Paddy, scale 0 to 100, 0 no effect, 100 complete control; for Plant response rating, Ducksalad: flooded paddy test, scale 0 to 100 (0 no effect, 100 complete control)
Procedure, shortened: as §2

rice (Oryza saliva) [23] = assay: Test C flooded paddy test; conditions: for Rice plant response rating: Flooded Paddy, scale 0 to 100, 0 no effect, 100 complete control; for Plant response rating, Rice: flooded paddy test, scale 0 to 100 (0 no effect, 100 complete control)
Procedure, shortened: as §2

[24] = test system: smallflower flatsedge (Cyperus difformis); assay: Test C flooded paddy test; conditions: for Flatsedge plant response rating: Flooded Paddy, scale 0 to 100, 0 no effect, 100 complete control; for Plant response rating, Flatsedge: flooded paddy test, scale 0 to 100 (0 no effect, 100 complete control)
Procedure, shortened: as §2

Nightshade = assay: Test C preemergence; conditions: Rate 250 g/ha, visual evaluation after 12 to 14 days
Sunflower = assay: Test C preemergence; conditions: Rate 125 g/ha, scale 0 to 100, 0 no effect, 100 complete control
[25] = Rate 125 g/ha, scale 0 (no effect) to 100 (complete control)
[26] = Rate 500 g/ha, scale 0 to 100, 0 is no effect, 100 is complete control

SMILES: O=C1C(n2ccc(C3CCC3)n2)SCN1c1cccc(OC(F)(F)F)c1 (stereo not shown) [Compound 38]
- Plant response rating, Surinam grass [1, 25]: 0
- Plant response rating, Surinam grass [1, 26]: 0
- Plant response rating, Barnyardgrass [2, 25]: 100
- Plant response rating, Barnyardgrass [2, 26]: 100
- Plant response rating, Blackgrass [3, 25]: 0
- Plant response rating, Blackgrass [3, 26]: 0
- Plant response rating, Corn (corn (Zea mays) [4]; [25]): 0
- Plant response rating, Corn (corn (Zea mays) [4]; [26]): 0
- Plant response rating, Foxtail, Giant [5, 25]: 30
- Plant response rating, Foxtail, Giant [5, 26]: 80
- Plant response rating, Morningglory [6, 25]: 10
- Plant response rating, Morningglory [6, 26]: 20
- Plant response rating, Pigweed [7, 25]: 60
- Plant response rating, Pigweed [7, 26]: 80
- Plant response rating, Velvetleaf [8, 25]: 0
- Plant response rating, Velvetleaf [8, 26]: 70
- Plant response rating, Wheat [9, 25]: 0
- Plant response rating, Wheat [9, 26]: 0
- Plant response rating, Surinam grass ([10]; Preemergence, Rate 500 g/ha): 60
- Plant response rating, Surinam grass ([10]; preemergence, Rate 125 g/ha): 0
- Plant response rating, Barnyardgrass ([11]; Preemergence, Rate 500 g/ha): 100
- Plant response rating, Barnyardgrass ([11]; preemergence, Rate 125 g/ha): 70
- Plant response rating, Cocklebur [12]: 0
- Plant response rating, Corn (corn (Zea mays) [13]; Preemergence, Rate 500 g/ha): 0
- Plant response rating, Corn (corn (Zea mays) [13]; preemergence, Rate 125 g/ha): 0
- Plant response rating, Crabgrass ([14]; Preemergence, Rate 500 g/ha): 100
- Plant response rating, Crabgrass ([14]; preemergence, Rate 125 g/ha): 0
- Plant response rating, Foxtail, Giant ([15]; Preemergence, Rate 500 g/ha): 100
- Plant response rating, Foxtail, Giant ([15]; preemergence, Rate 125 g/ha): 0
- Plant response rating, Lambsquarters ([16]; Preemergence, Rate 500 g/ha): 100
- Plant response rating, Lambsquarters ([16]; preemergence, Rate 125 g/ha): 100
- Plant response rating, Morningglory [17]: 0
- Plant response rating, Pigweed [18]: 100
- Plant response rating, Rice (rice (Oryza saliva) [19]): 10
- Plant response rating, Velvetleaf [20]: 0
- Barnyardgrass plant response rating ([21]; Rate 250 g/ha): 100
- Barnyardgrass plant response rating ([21]; Rate 500 g/ha): 100
- Plant response rating, Barnyardgrass ([21]; Rate 62 g/ha): 100
- Plant response rating, Barnyardgrass ([21]; Rate 125 g/ha): 100
- Ducksalad plant response rating ([22]; Rate 250 g/ha): 90
- Ducksalad plant response rating ([22]; Rate 500 g/ha): 80
- Plant response rating, Ducksalad ([22]; Rate 62 g/ha): 50
- Plant response rating, Ducksalad ([22]; Rate 125 g/ha): 90
- Rice plant response rating (rice (Oryza saliva) [23]; Rate 250 g/ha): 50
- Rice plant response rating (rice (Oryza saliva) [23]; Rate 500 g/ha): 80
- Plant response rating, Rice (rice (Oryza saliva) [23]; Rate 62 g/ha): 20
- Plant response rating, Rice (rice (Oryza saliva) [23]; Rate 125 g/ha): 30
- Flatsedge plant response rating ([24]; Rate 250 g/ha): 100
- Flatsedge plant response rating ([24]; Rate 500 g/ha): 100
- Plant response rating, Flatsedge ([24]; Rate 62 g/ha): 100
- Plant response rating, Flatsedge ([24]; Rate 125 g/ha): 100
- Plant response rating (0 to 100), Nightshade (Nightshade): 60
- Plant response rating, Sunflower (Sunflower): 0

SMILES: CCC(C)c1ccn(C2SCN(c3cccc(OC(F)(F)F)c3)C2=O)n1 (stereo not shown) [Compound 32]
- Plant response rating, Surinam grass [1, 25]: 0
- Plant response rating, Surinam grass [1, 26]: 10
- Plant response rating, Barnyardgrass [2, 25]: 80
- Plant response rating, Barnyardgrass [2, 26]: 90
- Plant response rating, Blackgrass [3, 25]: 0
- Plant response rating, Blackgrass [3, 26]: 0
- Plant response rating, Corn (corn (Zea mays) [4]; [25]): 0
- Plant response rating, Corn (corn (Zea mays) [4]; [26]): 0
- Plant response rating, Foxtail, Giant [5, 25]: 0
- Plant response rating, Foxtail, Giant [5, 26]: 60
- Plant response rating, Morningglory [6, 25]: 20
- Plant response rating, Morningglory [6, 26]: 20
- Plant response rating, Pigweed [7, 25]: 40
- Plant response rating, Pigweed [7, 26]: 60
- Plant response rating, Velvetleaf [8, 25]: 0
- Plant response rating, Velvetleaf [8, 26]: 0
- Plant response rating, Wheat [9, 25]: 0
- Plant response rating, Wheat [9, 26]: 0
- Plant response rating, Surinam grass ([10]; Preemergence, Rate 500 g/ha): 60
- Plant response rating, Surinam grass ([10]; preemergence, Rate 125 g/ha): 40
- Plant response rating, Barnyardgrass ([11]; Preemergence, Rate 500 g/ha): 100
- Plant response rating, Barnyardgrass ([11]; preemergence, Rate 125 g/ha): 80
- Plant response rating, Cocklebur [12]: 0
- Plant response rating, Corn (corn (Zea mays) [13]; Preemergence, Rate 500 g/ha): 0
- Plant response rating, Corn (corn (Zea mays) [13]; preemergence, Rate 125 g/ha): 0
- Plant response rating, Crabgrass ([14]; Preemergence, Rate 500 g/ha): 100
- Plant response rating, Crabgrass ([14]; preemergence, Rate 125 g/ha): 60
- Plant response rating, Foxtail, Giant ([15]; Preemergence, Rate 500 g/ha): 100
- Plant response rating, Foxtail, Giant ([15]; preemergence, Rate 125 g/ha): 70
- Plant response rating, Lambsquarters ([16]; Preemergence, Rate 500 g/ha): 100
- Plant response rating, Lambsquarters ([16]; preemergence, Rate 125 g/ha): 100
- Plant response rating, Morningglory [17]: 0
- Plant response rating, Pigweed [18]: 100
- Plant response rating, Rice (rice (Oryza saliva) [19]): 0
- Plant response rating, Velvetleaf [20]: 0
- Barnyardgrass plant response rating ([21]; Rate 250 g/ha): 100
- Barnyardgrass plant response rating ([21]; Rate 500 g/ha): 100
- Plant response rating, Barnyardgrass ([21]; Rate 62 g/ha): 20
- Plant response rating, Barnyardgrass ([21]; Rate 125 g/ha): 100
- Ducksalad plant response rating ([22]; Rate 250 g/ha): 100
- Ducksalad plant response rating ([22]; Rate 500 g/ha): 80
- Plant response rating, Ducksalad ([22]; Rate 62 g/ha): 50
- Plant response rating, Ducksalad ([22]; Rate 125 g/ha): 80
- Rice plant response rating (rice (Oryza saliva) [23]; Rate 250 g/ha): 100
- Rice plant response rating (rice (Oryza saliva) [23]; Rate 500 g/ha): 100
- Plant response rating, Rice (rice (Oryza saliva) [23]; Rate 62 g/ha): 0
- Plant response rating, Rice (rice (Oryza saliva) [23]; Rate 125 g/ha): 30
- Flatsedge plant response rating ([24]; Rate 250 g/ha): 100
- Flatsedge plant response rating ([24]; Rate 500 g/ha): 100
- Plant response rating, Flatsedge ([24]; Rate 62 g/ha): 100
- Plant response rating, Flatsedge ([24]; Rate 125 g/ha): 100
- Plant response rating (0 to 100), Nightshade (Nightshade): 90
- Plant response rating, Sunflower (Sunflower): 0
